Molecular target: endogenous wild-type p53 protein (Homo sapiens, UniProt P04637)
Experiment: Western blot of endogenous wild-type p53 protein degradation in HeLa cells, with rescue by proteasome inhibitor
Type: cell-based
Design: endogenous in cells
Procedure: In Example 3, degradation (knockdown) of an endogenous wild-type p53 protein in HeLa cells (human cervical cancer cells) to which TIBC-CANDDY_MLN has been added was evaluated by Western blot analysis. At the same time, a rescue of degradation of the p53 protein by a proteasome inhibitor (MLN2238) was evaluated.
HeLa cells were seeded in a 24-well plate at a cell density of 4×10^4 cells/well, and then cultured under conditions of 37° C. and 5 vol % CO2 for 16 hours.
After 16 hours from cell seeding, TIBC-CANDDY_MLN was added to HeLa cells as follows. As a medium, a serum-free medium (37° C.) in which 1 mass % L-glutamine solution (Sigma-Aldrich) was added to D-MEM (high D-glucose, phenol red, sodium pyruvate (Wako Pure Chemical Industries, Ltd.)) was used. It is noted that the L-glutamine solution was added immediately before use. A DMSO solution containing TIBC-CANDDY_MLN was mixed with the medium so that the concentration of DMSO was 1 vol %, and added to each well at 500 μL/well, and cultured under conditions of 37° C. and 5 vol % CO2. As a control, DMSO was used. Furthermore, in addition to an experiment group in which a DMSO solution containing TIBC-CANDDY_MLN had been added, an experiment group in which a DMSO solution containing both TIBC-CANDDY_MLN and MLN2238, or MLN2238 had been added was prepared. […]

endogenous wild-type p53 protein, sequence (P04637 whole entry): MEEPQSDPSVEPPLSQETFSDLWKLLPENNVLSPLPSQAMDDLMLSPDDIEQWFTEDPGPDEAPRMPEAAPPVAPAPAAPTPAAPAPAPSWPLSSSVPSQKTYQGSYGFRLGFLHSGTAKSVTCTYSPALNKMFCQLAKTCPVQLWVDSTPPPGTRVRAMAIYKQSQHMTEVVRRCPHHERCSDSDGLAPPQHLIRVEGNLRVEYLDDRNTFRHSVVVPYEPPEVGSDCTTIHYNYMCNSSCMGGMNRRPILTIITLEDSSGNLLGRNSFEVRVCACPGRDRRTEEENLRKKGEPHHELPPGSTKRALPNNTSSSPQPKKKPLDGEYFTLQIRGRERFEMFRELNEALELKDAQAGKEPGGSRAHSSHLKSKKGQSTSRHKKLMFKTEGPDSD

amount of the endogenous wild-type p53 protein (Western blot) (24 hours after addition, vs DMSO control): reduced
SMILES: CC(C)C[C@H](NC(=O)CNC(=O)c1cc(Cl)ccc1Cl)C(=O)NCCCCCCC(=O)Nc1ccc(C(=O)/C=C/c2ccc(I)cc2)cc1 [TIBC-CANDDY_MLN]
amount of the wild-type p53 protein when proteasome inhibitor MLN2238 is added as well (rescue) (24 hours, both TIBC-CANDDY_MLN and MLN2238 added): increased as compared with the control (DMSO)
